Test results: PubChem BioAssay (NCI)
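The compound was tested at five concentrations on cells cultured in 96-well plates, with a 48-hour exposure period. The concentration for 50% growth inhibition is given as GI50. TGI is the concentration that stops growth completely.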

Assays:
Experiment in all cases: growth of human tumour cells (NCI), 48 h
BT-549 breast = test system: BT-549 breast
HS 578T breast = test system: HS 578T breast
SK-OV-3 ovarian = test system: SK-OV-3 ovarian
T-47D breast = test system: T-47D breast
MDA-MB-231 breast = test system: MDA-MB-231 breast
MDA-MB-435 = test system: MDA-MB-435

## COc1cc(/C=C2\CCC/C(=C\c3ccc(OCC4CO4)c(OC)c3)C2=O)ccc1OCC1CO1 (configuration not stated)
BT-549 breast
  GI50: 2280 nM
  TGI: 5.3 µM
HS 578T breast
  GI50: 4220 nM
  TGI: > 100 µM
SK-OV-3 ovarian
  GI50: 3.54 µM
  TGI: 10.7 µM
T-47D breast
  GI50: 2.98 µM
  TGI: 12.2 µM

## Clc1nc(Cl)c2ncn(Cc3ccccc3Cn3cnc4c(Cl)nc(Cl)nc43)c2n1
BT-549 breast
  GI50: 165 nM
  TGI: 1.52 µM
HS 578T breast
  GI50: 2870 nM
  TGI: 9.39 µM
MDA-MB-231 breast
  GI50: 1550 nM
  TGI: 3.01 µM
MDA-MB-435
  GI50: 2310 nM
  TGI: 5.58 µM
SK-OV-3 ovarian
  GI50: 15.3 µM
  TGI: 33.7 µM
T-47D breast
  GI50: 1.73 µM
  TGI: 4.71 µM

## CCOC(=O)C1=C(N)Oc2c(sc3c(C)cccc23)C1c1ccc(F)cc1 (configuration not stated)
BT-549 breast
  GI50: 2070 nM
  TGI: 12.6 µM
HS 578T breast
  GI50: 472 nM
  TGI: 7.17 µM
MDA-MB-231 breast
  GI50: 2370 nM
  TGI: 16 µM
MDA-MB-435
  GI50: 210 nM
  TGI: 0.464 µM
SK-OV-3 ovarian
  GI50: 11.5 µM
  TGI: 32.3 µM
T-47D breast
  GI50: 2.61 µM
  TGI: 26.4 µM

## COc1cc(OC)c2sc(-c3ccc(-n4cncc4-c4cc(OC)c(OC)c(OC)c4)cc3)nc2c1
BT-549 breast
  GI50: 5230 nM
  TGI: > 100 µM
MDA-MB-231 breast
  GI50: 3510 nM
  TGI: > 100 µM
MDA-MB-435
  GI50: 3410 nM
  TGI: > 100 µM
SK-OV-3 ovarian
  GI50: > 100 µM
  TGI: > 100 µM
T-47D breast
  GI50: 3.35 µM
  TGI: > 100 µM

## COc1ccc(-c2cc(Nc3ccnc(N4CCOCC4)n3)on2)cc1
BT-549 breast
  GI50: 802 nM
  TGI: 15.1 µM
HS 578T breast
  GI50: 303 nM
  TGI: 9.8 µM
MDA-MB-231 breast
  GI50: 339 nM
  TGI: 22.5 µM
MDA-MB-435
  GI50: 30.7 nM
  TGI: 0.121 µM
SK-OV-3 ovarian
  GI50: 0.351 µM
  TGI: 22.5 µM
T-47D breast
  GI50: 0.566 µM
  TGI: 21.6 µM

## COc1ccc(/C=C/c2cnccn2)cc1OC
BT-549 breast
  TGI: > 10 µM
HS 578T breast
  TGI: > 10 µM
MDA-MB-231 breast
  TGI: > 10 µM
MDA-MB-435
  TGI: > 10 µM
SK-OV-3 ovarian
  TGI: > 10 µM
T-47D breast
  TGI: > 10 µM

## COc1cc2c3c(n(CCCN(C)CCO)c(=O)c2cc1OC)-c1cc2c(cc1C3=O)OCO2
BT-549 breast
  GI50: 3130 nM
  TGI: > 22.3 µM
HS 578T breast
  GI50: > 61300 nM
  TGI: > 100 µM
MDA-MB-231 breast
  GI50: 14000 nM
  TGI: 49.9 µM
MDA-MB-435
  GI50: 16600 nM
  TGI: > 100 µM
SK-OV-3 ovarian
  GI50: 11 µM
  TGI: > 100 µM
T-47D breast
  GI50: 10.8 µM
  TGI: > 100 µM

## Cn1cc(S(=O)(=O)N2CCC3=Cc4c(cnn4-c4ccc(F)cc4)C[C@]3(C(=O)c3cc(C(F)(F)F)ccn3)C2)cn1
BT-549 breast
  GI50: 26600 nM
  TGI: > 100 µM
HS 578T breast
  GI50: 37800 nM
  TGI: > 100 µM
MDA-MB-231 breast
  GI50: > 100000 nM
  TGI: > 100 µM
MDA-MB-435
  GI50: > 100000 nM
  TGI: > 100 µM
T-47D breast
  GI50: 13.3 µM
  TGI: > 100 µM

## NCCCOc1cc2ccccc2cc1C(=O)NCCCOc1cc2ccccc2cc1C(=O)Nc1ccc(Cl)cc1O
BT-549 breast
  GI50: 1850 nM
  TGI: 3.6 µM
HS 578T breast
  GI50: 1860 nM
  TGI: 4.39 µM
MDA-MB-231 breast
  GI50: 629 nM
  TGI: 1.82 µM
MDA-MB-435
  GI50: 899 nM
  TGI: 2.6 µM
T-47D breast
  GI50: 1.88 µM
  TGI: 4.24 µM

## NCCCOc1cc(Cl)ccc1NC(=O)c1cc2ccccc2cc1OCCCN
HS 578T breast
  GI50: 1590 nM
  TGI: 3.57 µM
MDA-MB-231 breast
  GI50: 1190 nM
  TGI: 2.69 µM
MDA-MB-435
  GI50: 1800 nM
  TGI: 3.59 µM
SK-OV-3 ovarian
  GI50: 1.4 µM
  TGI: 2.72 µM
T-47D breast
  GI50: 1.51 µM
  TGI: 3.2 µM

## Cn1cc(-c2csc(-c3cn(C)c4ccc(F)cc34)n2)c2cnccc21
BT-549 breast
  GI50: 1710 nM
  TGI: 3.1 µM
HS 578T breast
  GI50: 2360 nM
  TGI: 5.12 µM
MDA-MB-231 breast
  GI50: 1750 nM
  TGI: 3.26 µM
MDA-MB-435
  GI50: 1670 nM
  TGI: 3.1 µM
SK-OV-3 ovarian
  GI50: 2.03 µM
  TGI: 3.75 µM

## CCc1nc(Cl)c(Cl)c(Cl)n1
BT-549 breast
  TGI: > 100 µM
HS 578T breast
  TGI: > 100 µM
MDA-MB-435
  TGI: > 100 µM
SK-OV-3 ovarian
  TGI: > 100 µM

## COc1cc(/C=C/C(=O)C(C(=O)/C=C/c2ccc(OC(=O)CCNC34CC5CC(CC(C5)C3)C4)c(OC)c2)C(=O)CCNC23CC4CC(CC(C4)C2)C3)ccc1OC(=O)CCNC12CC3CC(CC(C3)C1)C2 (configuration not stated)
BT-549 breast
  GI50: 2500 nM
  TGI: 5.77 µM
HS 578T breast
  GI50: 2100 nM
  TGI: 6.84 µM
MDA-MB-231 breast
  GI50: 3990 nM
  TGI: 26.5 µM
MDA-MB-435
  GI50: 2880 nM
  TGI: 35.3 µM
SK-OV-3 ovarian
  GI50: 5.44 µM
  TGI: 36.3 µM
T-47D breast
  GI50: 3.69 µM
  TGI: 28.9 µM

## CN1C(NNC(=O)c2cccnc2)=NS(=O)(=O)c2cc(Cl)ccc21
BT-549 breast
  GI50: > 100000 nM
  TGI: > 100 µM
HS 578T breast
  GI50: > 100000 nM
  TGI: > 100 µM
MDA-MB-231 breast
  GI50: > 100000 nM
  TGI: > 100 µM
MDA-MB-435
  GI50: > 100000 nM
  TGI: > 100 µM
SK-OV-3 ovarian
  GI50: > 100 µM
  TGI: > 100 µM
T-47D breast
  GI50: > 100 µM
  TGI: > 100 µM

## COc1ccc(-c2nn(-c3cccc(Cl)c3)cc2-c2nc(N)[nH]c(=O)c2C#N)cc1
BT-549 breast
  GI50: 3540 nM
  TGI: 22.4 µM
HS 578T breast
  GI50: 3550 nM
  TGI: 40.3 µM
MDA-MB-231 breast
  GI50: 3390 nM
  TGI: 53.3 µM
MDA-MB-435
  GI50: 2160 nM
  TGI: 5.48 µM
SK-OV-3 ovarian
  GI50: 6.56 µM
  TGI: 30.7 µM
T-47D breast
  GI50: 6.05 µM
  TGI: 32.2 µM

## O=[N+]([O-])c1ccc(Sc2c3ccccc3nc3ccccc23)cn1
BT-549 breast
  TGI: 28.8 µM
HS 578T breast
  TGI: 29.7 µM
MDA-MB-231 breast
  TGI: 42.5 µM
MDA-MB-435
  TGI: 33.2 µM
SK-OV-3 ovarian
  TGI: > 93 µM
T-47D breast
  TGI: 19.9 µM

## Oc1ccc(/C=C/c2cc(O)cc3c2C(c2cc(O)cc(O)c2)C(c2ccc(O)c(O)c2)O3)cc1 (configuration not stated)
BT-549 breast
  TGI: 64.4 µM
HS 578T breast
  TGI: 88.8 µM
MDA-MB-231 breast
  TGI: 68 µM
MDA-MB-435
  TGI: > 100 µM
SK-OV-3 ovarian
  TGI: > 100 µM
T-47D breast
  TGI: > 100 µM

## CN(C)CCNc1nc2ccccc2c2c(=O)c3cc(F)ccc3sc12
BT-549 breast
  GI50: 3520 nM
  TGI: > 100 µM
MDA-MB-231 breast
  GI50: 1470 nM
  TGI: 2.88 µM
MDA-MB-435
  GI50: 1660 nM
  TGI: 3.06 µM

## O=C1/C(=C/N2N=C(c3ccc4ccccc4c3)CC2c2ccccc2O)SC(=S)N1c1cccnc1 (configuration not stated)
HS 578T breast
  GI50: 2550 nM
  TGI: > 100 µM
MDA-MB-231 breast
  GI50: 2290 nM
  TGI: 8.34 µM
MDA-MB-435
  GI50: 481 nM
  TGI: 3.17 µM
SK-OV-3 ovarian
  GI50: 5.95 µM
  TGI: > 100 µM
T-47D breast
  GI50: 3.8 µM
  TGI: > 100 µM

## Oc1ccc(Oc2cnc3ccccc3n2)cc1
BT-549 breast
  GI50: 12300 nM
  TGI: 57.5 µM
MDA-MB-231 breast
  GI50: > 100000 nM
  TGI: > 100 µM
MDA-MB-435
  GI50: > 100000 nM
  TGI: > 100 µM
SK-OV-3 ovarian
  GI50: > 100 µM
  TGI: > 100 µM
T-47D breast
  GI50: 84.5 µM
  TGI: > 100 µM

## NC(=O)CNc1ccc([As]=[As]c2ccc(NCC(N)=O)cc2)cc1 (configuration not stated)
HS 578T breast
  GI50: 1450 nM
  TGI: 21.1 µM
MDA-MB-231 breast
  GI50: 3270 nM
  TGI: 21 µM
MDA-MB-435
  GI50: 6240 nM
  TGI: 56.6 µM
SK-OV-3 ovarian
  GI50: 22.6 µM
  TGI: 71.4 µM
T-47D breast
  GI50: 1.44 µM
  TGI: 17.4 µM

## CC(=O)[CH-]C(=O)c1ccccc1.CC(=O)[CH-]C(=O)c1ccccc1.O=S(=O)([O-])c1cc([O-])c2c([O-])cc(S(=O)(=O)[O-])cc2c1.[Na+].[Ti+4]
SK-OV-3 ovarian
  GI50: > 100 µM
  TGI: > 100 µM
